Measurements reported in US20170014375A1, “PHARMACEUTICAL COMPOSITION COMPRISING EFFECTIVE DOSE OF POMIFERIN FOR TREATING CANCERS” (Macau University of Science and Technology, priority 2015, published 2017).

Tests used:
Assay type in all cases: cell-based
[1] = system: panel of human and mouse cancer cells; experiment: MTT cytotoxicity assay, panel of human and mouse cancer cells; settings: 72 hours, read-out: mean IC50 value range over the panel
Experimental: (§1) Pomiferin is dissolved in DMSO at a final concentration of 100 mmol/L and stored at −20° C. Cytotoxicity is assessed using the 3-(4,5-dimethylthiazol-2-yl)-2,5-diphenyltetrazolium bromide assay. 4000-8000 HeLa (human cervical cancer), MCF-7 (human breast cancer), HepG2 and Hep3B (human liver cancer), H1299 and A549 (human lung cancer), LNCap (human prostate cancer) and LLC-1 (mouse Lewis lung carcinoma) cells are seeded on 96-well plates per well. After overnight pre-incubation, the cells are exposed to different concentrations of pomiferin ([…]) for 3 days. Subsequently, 10 μL of MTT reagents is added to each well and incubated at 37° C. for 4 hours followed by the addition of 100 μL solubilization buffer (10% SDS in 0.01 mol/L HCl) and overnight incubation. Absorbance at 585 nm is determined from each well the next day. The percentage of cell viability is calculated using the following formula: Cell viability (%)=Cells number treated/Cells number DMSO control×100. Data are obtained from three independent experiments.

[2] = system: A549 (human lung cancer) cells; experiment: MTT cytotoxicity assay, A549; settings: 72 h, 3 days, read-out: Means of IC50
Experimental: as §1

[3] = system: caspase-7 deficient (caspase 7KO) mouse embryonic fibroblasts; experiment: MTT cytotoxicity assay, caspase 7KO MEFs; settings: Fibroblast, 72 h, 3 days, read-out: Means of IC50
Experimental: (§2) The test compound of pomiferin is dissolved in DMSO at a final concentration of 100 mmol/L and stored at −20° C. Cytotoxicity is assessed using the 3-(4,5-dimethylthiazol-2-yl)-2,5-diphenyltetrazolium bromide assay as previously described^29. 2500 of caspase wild-type (caspase WT), caspase-3 deficient (caspase 3KO), caspase-7 deficient (caspase 7KO), caspase-3/-7 deficient (caspase 3/7 DKO), caspase-8 deficient (caspase 8KO), Bax-Bak wild-type (Bak-Bak WT) and Bax-Bak double knock out (Bak-Bak DKO) mouse embryonic fibroblasts (MEFs) are seeded on 96-well plates per well. After overnight pre-incubation, the cells are exposed to different concentrations of pomiferin (namely 100, 50, 25, 12.5, 6.25, 3.125, 1.5625, 0.78, 0.39, 0.195, 0.079, 0.039 μmol/L) for 3 days. Subsequently, 10 μL of MTT reagents is added to each well and incubated at 37° C. for 4 hours, followed by the addition of 100 μL solubilization buffer (10% SDS in 0.01 mol/L HCl) and overnight incubation. Absorbance at 585 nm is determined from each well on the following day. The percentage of cell viability is calculated using the following formula: Cell viability (%)=Cells numbertreated/Cells numberDMSO control×100. Data is obtained from three independent experiments.

[4] = system: caspase-8 deficient (caspase 8KO) mouse embryonic fibroblasts; experiment: MTT cytotoxicity assay, caspase 8KO MEFs; settings: Fibroblast, 72 h, 3 days, read-out: Means of IC50
Experimental: as §2

[5] = system: Atg7 deficient (Atg7−/−) mouse embryonic fibroblasts; experiment: Annexin V/PI flow cytometry cell death, Atg7−/− MEFs; settings: 2 μM, 24 h, FIG. 6B
Experimental: (§3) Cell viability is measured using an annexin V staining kit (BD Biosciences, San Jose, Calif., USA). Briefly, Atg7 wild-type (Atg7+/+ or Atg7-wt) and Atg7 deficient (Atg7−/− or Atg7-ko) mouse embryonic fibroblasts (MEFs) are treated with the 2 μM pomiferin for 24 h. Cells are then harvested and analysed by multiparametric flow cytometry using FITC-Annexin V and Propidium iodide staining (BD Biosciences, San Jose, Calif., USA) according to the manufacturer's instructions. Flow cytometry is then carried out using a FACSCalibur flow cytometer (BD Biosciences, San Jose, Calif., USA). Data acquisition and analysis is performed with CellQuest (BD Biosciences, San Jose, Calif., USA). Data are obtained from three independent experiments.

[6] = system: LLC-1 (mouse Lewis lung carcinoma) cells; experiment: MTT cytotoxicity assay, LLC-1; settings: LLC1, 72 h, LLC-1 (Lung), 3 days, read-out: Means of IC50
Experimental: as §1

[7] = system: Hep3B (human liver cancer) cells; experiment: MTT cytotoxicity assay, Hep3B; settings: 72 h, Hep 3B (Liver), 3 days, read-out: Means of IC50
Experimental: as §1

[8] = system: caspase wild-type (caspase WT) mouse embryonic fibroblasts; experiment: MTT cytotoxicity assay, caspase WT MEFs; settings: Fibroblast, 72 h, 3 days, read-out: Means of IC50
Experimental: as §2

[9] = system: Atg7 wild-type (Atg7+/+) mouse embryonic fibroblasts; experiment: Endogenous autophagic LC3 puncta, Atg7 wild-type MEFs; settings: 2 μM, FIG. 6A
Experimental: Endogenous LC3 puncta formation is quantified as previously described^2. In brief, both Atg7 wild-type and deficient mouse embryonic fibroblasts (MEFs) grown on coverslips in a 6-well plate are treated with indicated concentrations of pomiferin. Both Atg7 wild-type and deficient mouse embryonic fibroblasts are then fixed in 4% paraformaldehyde for 20 minutes at room temperature and then rinsed with PBS. After washing with PBS, the cells are then incubated with anti-LC3 (1:200) in TBST (100 mM Tris HCl, pH 7.5, 150 mM NaCl, 0.05% Tween 20 and 5% BSA) overnight at 4. After washing with PBS, the cells are incubated with anti-mouse secondary antibody (TRITC) 1:200 in TBST containing 5% BSA at 37 for 1 hrs in the dark. The coverslips are then mounted with FluorSave™ mounting media (Calbiochem, San Diego, Calif., USA) for fluorescence imaging and localization of LC3 autophagosomes are captured under the API Delta Vision Live-cell Imaging System (Applied Precision Inc., GE Healthcare Company, Washington, USA). To quantify for autophagy, the percentage of cells with punctate TRITC-LC3 fluorescence is calculated by counting the number of the cells with punctate TRITC-LC3 fluorescence in TRITC-positive cells. A minimum of 150 cells from 3 randomly selected fields is scored.

[10] = system: drug-resistant HCT-116 p53−/− colon cancer cells; experiment: Annexin V/PI flow cytometry cell death, HCT-116 p53−/−; settings: 10 μM pomiferin alone, 24 h, FIGS. 9A & B
Experimental: as §3, with “Cell death” for “Cell viability”, “Briefly, drug-resistant HCT-116 p53−/−” for “Briefly, Atg7 wild-type (Atg7+/+ or Atg7-wt) and Atg7”, “deficient colon cancer cells” for “deficient (Atg7−/− or Atg7-ko) mouse embryonic fibroblasts (MEFs)”, “the 10” for “the 2”, “pomiferin in the presence or absence of 5 mM autophagic inhibitor 3-MA or […] calcium chelator BAPTA/AM” for “pomiferin”

[11] = system: LNCap (human prostate cancer) cells; experiment: MTT cytotoxicity assay, LNCap; settings: 72 h, 3 days, read-out: Means of IC50
Experimental: as §1

CC(C)=CCc1c2c(c3occ(-c4ccc(O)c(O)c4)c(=O)c3c1O)C=CC(C)(C)O2 [pomiferin]
IC50 [1]: 3.82 to 20.3 µM
IC50 [2]: 20.3 µM
IC50 [3]: 3.95 µM
IC50 [4]: 4.98 µM
cell death (in words) [5]: not in autophagy deficient cells
IC50 [6]: 3.82 µM
IC50 [7]: 16.3 µM
IC50 [8]: 7.63 µM
TRITC-LC3 puncta formation [9]: induce TRITC-LC3 puncta formation
cell death (in words) [10]: significantly induced cell death
IC50 [11]: 16.2 µM
